From PubChem BioAssay (NCI)
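Grown in 96-well plates, cells were treated for 48 hours with each compound at five concentrations. Insufficient inhibition: endpoint recorded as highest concentration tested. GI50 marks 50% less growth. TGI: total growth inhibition.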

Key:
Assay in all cases: NCI-60 cell line screen, 48 h
[1] = tested on: ACHN renal
[2] = tested on: HCT-15 colon
[3] = tested on: NCI/ADR-RES ovarian
[4] = tested on: MDA-MB-231 breast
[5] = tested on: SNB-19 CNS
[6] = tested on: MOLT-4 leukemia
[7] = tested on: UACC-62 melanoma
[8] = tested on: PC-3 prostate
[9] = tested on: SW-620 colon
[10] = tested on: KM12 colon
[11] = tested on: RXF 393 renal
[12] = tested on: CCRF-CEM leukemia
[13] = tested on: NCI-H460 lung
[14] = tested on: LOX IMVI melanoma
[15] = tested on: HOP-92 NSCLC
[16] = tested on: SF-295 CNS
[17] = tested on: OVCAR-5 ovarian
[18] = tested on: RPMI-8226 leukemia
[19] = tested on: 786-0 renal
[20] = tested on: BT-549 breast
[21] = tested on: A549 NSCLC
[22] = tested on: SK-OV-3 ovarian
[23] = tested on: HCC-2998 colon
[24] = tested on: SNB-75 CNS
[25] = tested on: MDA-MB-435
[26] = tested on: MCF7 breast
[27] = tested on: UACC-257 melanoma
[28] = tested on: HOP-62 NSCLC
[29] = tested on: HL-60(TB) leukemia
[30] = tested on: SK-MEL-2 melanoma
[31] = tested on: OVCAR-4 ovarian
[32] = tested on: HT29 colon
[33] = tested on: U251 CNS
[34] = tested on: SR leukemia
[35] = tested on: SK-MEL-28 melanoma
[36] = tested on: TK-10 renal
[37] = tested on: DU-145 prostate
[38] = tested on: CAKI-1 renal
[39] = tested on: SN12C renal
[40] = tested on: NCI-H23 lung
[41] = tested on: SF-539 CNS
[42] = tested on: HCT-116 colon
[43] = tested on: COLO 205 colon
[44] = tested on: HS 578T breast
[45] = tested on: NCI-H522 lung
[46] = tested on: A498 renal
[47] = tested on: NCI-H226 lung
[48] = tested on: IGROV1 ovarian
[49] = tested on: T-47D breast
[50] = tested on: OVCAR-8 ovarian
[51] = tested on: K-562 leukemia
[52] = tested on: EKVX NSCLC
[53] = tested on: OVCAR-3 ovarian
[54] = tested on: UO-31 renal
[55] = tested on: SK-MEL-5 melanoma
[56] = tested on: M14 melanoma
[57] = tested on: SF-268 CNS
[58] = tested on: MALME-3M melanoma

Work on `NC(=O)c1c(NC(=O)c2ccc(C(F)(F)F)cc2)sc2c1CCC(=O)C2` yielded a GI50 [1] of 1250 nM, a TGI [1] of 2530 nM and a GI50 [2] of 699 nM. It also gave a TGI [2] of 2810 nM, a GI50 [3] of 1480 nM and a TGI [3] of 7490 nM. The GI50 [4] was 1020 nM, the TGI [4] was 3980 nM and the GI50 [5] was 1310 nM. It also gave a TGI [5] of 9920 nM, a GI50 [6] of 1070 nM and a TGI [6] of 8320 nM. It also gave a GI50 [7] of 758 nM, a TGI [7] of 2350 nM and a GI50 [8] of 316 nM. It also gave a TGI [8] of 1860 nM, a GI50 [9] of 379 nM and a TGI [9] of 1960 nM. For the same molecule, the GI50 [10] was 1720 nM, the TGI [10] was 7180 nM and the GI50 [11] was 874 nM. It also gave a TGI [11] of 4240 nM, a GI50 [12] of 266 nM and a TGI [12] of 14000 nM. It also gave a GI50 [13] of 3350 nM, a TGI [13] of 12800 nM and a GI50 [14] of 391 nM. The TGI [14] was 2240 nM, the GI50 [15] was 726 nM and the TGI [15] was 3470 nM. For the same molecule, the GI50 [16] was 2170 nM, the TGI [16] was 6010 nM and the GI50 [17] was 1890 nM. The TGI [17] was 6080 nM, the GI50 [18] was 279 nM and the TGI [18] was 1260 nM. It also gave a GI50 [19] of 3910 nM, a TGI [19] of 32000 nM and a GI50 [20] of 569 nM. For the same molecule, the TGI [20] was 7210 nM, the GI50 [21] was 3120 nM and the TGI [21] was 15400 nM. For the same molecule, the GI50 [22] was 3030 nM, the TGI [22] was over 28600 nM and the GI50 [23] was 2490 nM. It also gave a TGI [23] of 6950 nM, a GI50 [24] of 1790 nM and a TGI [24] of 5950 nM. The GI50 [25] was 1950 nM, the TGI [25] was 4750 nM and the GI50 [26] was 1370 nM. For the same molecule, the TGI [26] was 10100 nM, the GI50 [27] was 1980 nM and the TGI [27] was 5900 nM. It also gave a GI50 [28] of 3550 nM, a TGI [28] of 17600 nM and a GI50 [29] of 1350 nM. The TGI [29] was 8060 nM, the GI50 [30] was 3210 nM and the TGI [30] was 11100 nM. It also gave a GI50 [31] of 1940 nM, a TGI [31] of 4830 nM and a GI50 [32] of 1070 nM. For the same molecule, the TGI [32] was 5260 nM, the GI50 [33] was 426 nM and the TGI [33] was 4670 nM. It also gave a GI50 [34] of 393 nM, a TGI [34] of over 100000 nM and a GI50 [35] of 1140 nM. It also gave a TGI [35] of 2820 nM, a GI50 [36] of 1660 nM and a TGI [36] of 11200 nM. It also gave a GI50 [37] of 4810 nM, a TGI [37] of over 100000 nM and a GI50 [38] of 750 nM. It also gave a TGI [38] of 2430 nM, a GI50 [39] of 2230 nM and a TGI [39] of 13200 nM. The GI50 [40] was 887 nM, the TGI [40] was 9090 nM and the GI50 [41] was 500 nM. It also gave a TGI [41] of 1810 nM, a GI50 [42] of 369 nM and a TGI [42] of 3550 nM. The GI50 [43] was 1550 nM, the TGI [43] was 3930 nM and the GI50 [44] was 1890 nM. For the same molecule, the TGI [44] was 19300 nM, the GI50 [45] was 613 nM and the TGI [45] was 2390 nM. For the same molecule, the GI50 [46] was 5060 nM, the TGI [46] was 19200 nM and the GI50 [47] was 2040 nM. For the same molecule, the TGI [47] was 4980 nM, the GI50 [48] was 1230 nM and the TGI [48] was 4350 nM. The GI50 [49] was 545 nM, the TGI [49] was 3340 nM and the GI50 [50] was 1850 nM. For the same molecule, the TGI [50] was 25000 nM, the GI50 [51] was 300 nM and the TGI [51] was over 41300 nM. It also gave a GI50 [52] of 2420 nM, a TGI [52] of 8580 nM and a GI50 [53] of 575 nM. For the same molecule, the TGI [53] was 2470 nM, the GI50 [54] was 645 nM and the TGI [54] was 1900 nM. It also gave a GI50 [55] of 1730 nM, a TGI [55] of 3320 nM and a GI50 [56] of 1860 nM. It also gave a TGI [56] of 4560 nM, a GI50 [57] of 1480 nM and a TGI [57] of 14400 nM. The GI50 [58] was 1080 nM and the TGI [58] was 3100 nM.
